Results: patent publication US20200108029A1, “METHODS AND SYSTEMS FOR TREATING OVERWEIGHT INDIVIDUALS” (LiveLight LLC, priority 2013, published 2020)
Read-outs that look alike come from different tables or passages of the source.

Tests used:
[1] = test system: overweight (7) and obese (16) patients; test: study of customized weekly dose patterns of moderate and low dose phentermine capsules; format: in vivo, human
Experimental: A study was performed including 23 overweight (7) and obese (16) patients whose average initial weight was 207 lb. Inclusion and exclusion criteria were similar to those of many published phentermine clinical trials. The patients were offered conventional dietary advice, provided meal replacements in the form of one to two commercial shakes (Usana Health Sciences, Salt Lake City, Utah), and were encouraged to exercise. Historical controls available from many published data about weight loss that involved dietary advice, meal replacement, and encouragement to exercise were used.
During the study, each patient was prescribed a customized dose pattern level of moderate capsules of phentermine and low dose capsules of phentermine that were provided on a biweekly basis in a 7-compartment blister pack where each blister contained a daily red capsule. The patient was instructed to take the appropriate daily capsule in the morning around breakfast time. The pack was labeled “each capsule contains up to 35 mg of phentermine.” In this example, each capsule contained 35 mg, 15 mg, 10 mg, 7.5 mg or 0 mg of phentermine in addition to inert excipients. The patients received two dose pattern weekly medications strips every two weeks.
In addition to the pills, patients were given a smartphone app or access to a browser-based reporting form where they could report their daily weight, drug compliance, hunger level, exercise level, and side effects experienced. The data was fed directly to a database, which was analyzed by the physician administering the trial and their assistant.
The algorithm for treatment included the following steps:
(1) Each patient was started on a weight loss dose pattern with a midlevel weekly phentermine dose pattern level 2 as shown in FIG. 2. […]
(2) The maximum tolerated weight loss dose pattern for the patient was determined by reviewing the patient's current dose level pattern and his or her electronically reported daily hunger level and side effects such as sleeplessness. […]

patients = test: pooled previously published phentermine clinical trials (FIG. 1A); format: in vivo, human; details: dropouts included as having lost no net weight
Description: Studies using phentermine alone or phentermine mixed with a placebo have reported significant patient dropout rates in a typical 8-12 weeks phentermine clinical trial (Lucey et al “Chlorphentermine, A New ‘Appetite Suppressant,’ A Cross-Over Double-Blind Trial,” Ulster Med. J., 1962, pages 181-184 reports a 66% dropout rate, Kim et al., “Effects on Weight Reduction and Safety of Short-Term Phentermine Administration in Korean Obese People,” Yonsei Med J., 2006 Vol. 47, No. 5, pages 614-625 reports a 47% dropout rate, Truant reports a 66% dropout rate, Munro reports a 41% dropout rate, and Langlois et al., “A Double-Blind Clinical Evaluation of the Safety and Efficacy of Phentermine Hydrochloride (Fastin) in the Treatment of Exogenous Obesity,” Curr Ther Res Clin Exp., 1974, Vol. 16, No. 4, pages 289-296 reports a 41% dropout rate). For broad clinical adoption, the intent to treat weight loss, e.g., the average weight loss of all the patients that were enrolled in the study, is the key measure.
FIG. 1A is a table showing the results of various previously published clinical trials using phentermine.

obesity patients = details: Munro, cited from earlier work
[2] = test system: patients in medical weight reduction; details: Truant, cited from earlier work

CC(C)(N)Cc1ccccc1 [phentermine, α-dimethyl-β-phenylethylamine]
patients failing to complete the first 12 weeks in the program ([1]; first 12 weeks, indicates tolerability of the regimen): None of the patients failed to complete the first 12 weeks | average twelve-week weight loss ([1]; hunger and weight responsive patient-specific regimen, 12 weeks, intent to treat basis): 23 lb | reported side effects rate ([1]; once the initial dose was titrated): Lower reported side effects rate | intent to treat weight loss (patients): 9.0 lb | average weight loss, intermittent versus continuous (obesity patients; 12-week treatment with weeks 4 through 8 on placebo versus phentermine for all 12 weeks): lost as much weigh on average | weight loss (obesity patients; alternating monthly placebo/active trial, twelve weeks): 15 lbs | weight lost ([2]; phentermine for twelve weeks except placebo on weeks 4, 8, and 12): 16.6 lb | weight lost ([2]; phentermine for twelve weeks): 18.8 lb
